Patent publication US9469650B2, “Melampomagnolide B derivatives” (BOARD OF TRUSTEES OF THE UNIVERSITY OF ARKANSAS, priority 2013, dated 2016)

Assays:
NCI-H522 = test: panel of 60 human tumor cell lines, growth inhibition (Non-Small Cell Lung Cancer); conditions: NCI-H522
SK-MEL-2 = test: panel of 60 human tumor cell lines, growth inhibition (Melanoma); conditions: SK-MEL-2
CCRF-CEM = test: panel of 60 human tumor cell lines, growth inhibition (Leukemia)
NCI-H23 = test: panel of 60 human tumor cell lines, growth inhibition (Non-Small Cell Lung Cancer); conditions: NCI-H23
OVCAR-8 = test: panel of 60 human tumor cell lines, growth inhibition (Ovarian Cancer); conditions: OVCAR-8
LOX IMVI = test: panel of 60 human tumor cell lines, growth inhibition (Melanoma)
M14 = test: as above; conditions: M14
OVCAR-5 = test: panel of 60 human tumor cell lines, growth inhibition (Ovarian Cancer); conditions: OVCAR-5
A549/ATCC = test: panel of 60 human tumor cell lines, growth inhibition (Non-Small Cell Lung Cancer); conditions: A549/ATCC

Structure (SMILES): C=C1C(=O)O[C@H]2[C@H]1CC/C(COC(=O)N1CCN(C)CC1)=C\CC[C@@]1(C)O[C@@H]21 [JVM 2-44]
- GI50 (NCI-H522): 1.54 µM
- TGI (NCI-H522): 3.55E−5
- Mean Optical Densities (NCI-H522; Log10 Concentration −4.0): 0.194
- Percent Growth (NCI-H522; Log10 Concentration −4.0): −78%
- Mean Optical Densities (NCI-H522; Log10 Concentration −5.0): 0.338
- Percent Growth (NCI-H522; Log10 Concentration −5.0): −62%
- Mean Optical Densities (NCI-H522; Log10 Concentration −6.0): 1.747
- Percent Growth (NCI-H522; Log10 Concentration −6.0): 76%
- Mean Optical Densities (NCI-H522; Log10 Concentration −7.0): 1.925
- Percent Growth (NCI-H522; Log10 Concentration −7.0): 92%
- Mean Optical Densities (NCI-H522; Log10 Concentration −8.0): 1.900
- Percent Growth (NCI-H522; Log10 Concentration −8.0): 89%
- GI50 (SK-MEL-2): 17.2 µM
- TGI (SK-MEL-2): 3.60E−5
- Mean Optical Densities (SK-MEL-2; Log10 Concentration −4.0): 0.382
- Percent Growth (SK-MEL-2; Log10 Concentration −4.0): −69%
- Mean Optical Densities (SK-MEL-2; Log10 Concentration −5.0): 1.984
- Percent Growth (SK-MEL-2; Log10 Concentration −5.0): 87%
- Mean Optical Densities (SK-MEL-2; Log10 Concentration −6.0): 2.148
- Percent Growth (SK-MEL-2; Log10 Concentration −6.0): 106%
- Mean Optical Densities (SK-MEL-2; Log10 Concentration −7.0): 2.037
- Percent Growth (SK-MEL-2; Log10 Concentration −7.0): 93%
- Mean Optical Densities (SK-MEL-2; Log10 Concentration −8.0): 2.082
- Percent Growth (SK-MEL-2; Log10 Concentration −8.0): 98%
- GI50 (CCRF-CEM): 3.06 µM
- TGI (CCRF-CEM): 1.84E−5
- Mean Optical Densities (CCRF-CEM; Log10 Concentration −4.0): 0.393
- Percent Growth (CCRF-CEM; Log10 Concentration −4.0): −25%
- Mean Optical Densities (CCRF-CEM; Log10 Concentration −5.0): 0.689
- Percent Growth (CCRF-CEM; Log10 Concentration −5.0): 9%
- Mean Optical Densities (CCRF-CEM; Log10 Concentration −6.0): 2.185
- Percent Growth (CCRF-CEM; Log10 Concentration −6.0): 89%
- Mean Optical Densities (CCRF-CEM; Log10 Concentration −7.0): 2.250
- Percent Growth (CCRF-CEM; Log10 Concentration −7.0): 92%
- Mean Optical Densities (CCRF-CEM; Log10 Concentration −8.0): 2.265
- Percent Growth (CCRF-CEM; Log10 Concentration −8.0): 93%
- GI50 (NCI-H23): 11.8 µM
- TGI (NCI-H23): 3.12E−5
- Mean Optical Densities (NCI-H23; Log10 Concentration −4.0): 0.244
- Percent Growth (NCI-H23; Log10 Concentration −4.0): −60%
- Mean Optical Densities (NCI-H23; Log10 Concentration −5.0): 1.347
- Percent Growth (NCI-H23; Log10 Concentration −5.0): 58%
- Mean Optical Densities (NCI-H23; Log10 Concentration −6.0): 1.872
- Percent Growth (NCI-H23; Log10 Concentration −6.0): 100%
- Mean Optical Densities (NCI-H23; Log10 Concentration −7.0): 1.838
- Percent Growth (NCI-H23; Log10 Concentration −7.0): 97%
- Mean Optical Densities (NCI-H23; Log10 Concentration −8.0): 1.849
- Percent Growth (NCI-H23; Log10 Concentration −8.0): 98%
- GI50 (OVCAR-8): 11.1 µM
- TGI (OVCAR-8): 3.06E−5
- Mean Optical Densities (OVCAR-8; Log10 Concentration −4.0): 0.184
- Percent Growth (OVCAR-8; Log10 Concentration −4.0): −61%
- Mean Optical Densities (OVCAR-8; Log10 Concentration −5.0): 1.385
- Percent Growth (OVCAR-8; Log10 Concentration −5.0): 59%
- Mean Optical Densities (OVCAR-8; Log10 Concentration −6.0): 1.997
- Percent Growth (OVCAR-8; Log10 Concentration −6.0): 98%
- Mean Optical Densities (OVCAR-8; Log10 Concentration −7.0): 2.055
- Percent Growth (OVCAR-8; Log10 Concentration −7.0): 102%
- Mean Optical Densities (OVCAR-8; Log10 Concentration −8.0): 2.052
- Percent Growth (OVCAR-8; Log10 Concentration −8.0): 101%
- GI50 (LOX IMVI): 12.4 µM
- TGI (LOX IMVI): 2.63E−5
- Mean Optical Densities (LOX IMVI; Log10 Concentration −4.0): 0.051
- Percent Growth (LOX IMVI; Log10 Concentration −4.0): −89%
- Mean Optical Densities (LOX IMVI; Log10 Concentration −5.0): 1.794
- Percent Growth (LOX IMVI; Log10 Concentration −5.0): 64%
- Percent Growth (LOX IMVI; Log10 Concentration −6.0): 96%
- Mean Optical Densities (LOX IMVI; Log10 Concentration −7.0): 2.419
- Percent Growth (LOX IMVI; Log10 Concentration −7.0): 94%
- Mean Optical Densities (LOX IMVI; Log10 Concentration −8.0): 2.424
- Percent Growth (LOX IMVI; Log10 Concentration −8.0): 94%
- GI50 (M14): 8.89 µM
- TGI (M14): 2.58E−5
- Mean Optical Densities (M14; Log10 Concentration −4.0): 0.178
- Percent Growth (M14; Log10 Concentration −4.0): −68%
- Mean Optical Densities (M14; Log10 Concentration −5.0): 1.229
- Percent Growth (M14; Log10 Concentration −5.0): 48%
- Mean Optical Densities (M14; Log10 Concentration −6.0): 1.877
- Percent Growth (M14; Log10 Concentration −6.0): 94%
- Mean Optical Densities (M14; Log10 Concentration −7.0): 1.848
- Percent Growth (M14; Log10 Concentration −7.0): 91%
- Mean Optical Densities (M14; Log10 Concentration −8.0): 1.953
- Percent Growth (M14; Log10 Concentration −8.0): 99%
- GI50 (OVCAR-5): 13.4 µM
- TGI (OVCAR-5): 3.03E−5
- Mean Optical Densities (OVCAR-5; Log10 Concentration −4.0): 0.201
- Percent Growth (OVCAR-5; Log10 Concentration −4.0): −73%
- Mean Optical Densities (OVCAR-5; Log10 Concentration −5.0): 1.240
- Percent Growth (OVCAR-5; Log10 Concentration −5.0): 68%
- Mean Optical Densities (OVCAR-5; Log10 Concentration −6.0): 1.400
- Percent Growth (OVCAR-5; Log10 Concentration −6.0): 89%
- Mean Optical Densities (OVCAR-5; Log10 Concentration −7.0): 1.404
- Percent Growth (OVCAR-5; Log10 Concentration −7.0): 90%
- Mean Optical Densities (OVCAR-5; Log10 Concentration −8.0): 1.415
- Percent Growth (OVCAR-5; Log10 Concentration −8.0): 91%
- GI50 (A549/ATCC): 20.5 µM
- TGI (A549/ATCC): 6.23E−5
- Mean Optical Densities (A549/ATCC; Log10 Concentration −4.0): 0.267
- Percent Growth (A549/ATCC; Log10 Concentration −4.0): −21%
- Mean Optical Densities (A549/ATCC; Log10 Concentration −5.0): 1.536
- Percent Growth (A549/ATCC; Log10 Concentration −5.0): 82%
- Mean Optical Densities (A549/ATCC; Log10 Concentration −6.0): 1.748
- Percent Growth (A549/ATCC; Log10 Concentration −6.0): 97%
- Mean Optical Densities (A549/ATCC; Log10 Concentration −7.0): 1.802
- Percent Growth (A549/ATCC; Log10 Concentration −7.0): 101%
- Mean Optical Densities (A549/ATCC; Log10 Concentration −8.0): 1.778
- Percent Growth (A549/ATCC; Log10 Concentration −8.0): 99%
